Key:
[1] = molecular target: T1, hDAT (Homo sapiens, UniProt Q01959); details: [3H]-win35,428, HEK293 cell line, read-out: Ki values, DAT binding
T1 construct: expressed in transfected cells
Method: (§1) Membranes were prepared from HEK293 cells stably expressing hSERT, hNET, or hDAT as described previously. Briefly, [^3H]-citalopram (1 nM), [^3H]-nisoxetine (2 nM), or [^3H]-WIN35,428 (2 nM) was used to label human 5-HT, NE, or DA transporters, respectively.
(§2) All data for inhibition curves were analysed by nonlinear regression using Prism software (GraphPad Software Inc., San Diego, CA) to determine IC50 values. For the microdialysis experiments, two-way repeated-measures ANOVA followed by Tukey’s test was used to compare the percentage increase over baseline between groups, time and treatment as independent factors, and time as the repeated factor.

[2] = molecular target: 5-HT2C (Homo sapiens, UniProt P28335); experiment: CNS receptor binding, 5-HT2C; details: CHO cell lines, [3H]-mesulergine(1)
Method: (§3) Albiflorin (10 μM) was tested for numerous other potential binding targets by using standard receptor binding procedures. The tested targets included the following receptors: D1, D2, D3, D4, D5, 5-HT1A, 5-HT1B, 5-HT1D, 5-HT2a, 5-HT2C, 5-HT3, 5-HT5A, 5-HT6, 5-HT7, α1A, α1B, α2A, β1, M1, M2, M3, M4, M5, μ, κ, δ, A1, A2A, H1, H2, H3, H4.

[3] = molecular target: T2, hNET (Homo sapiens, UniProt P23975); experiment: Human monoamine transporter binding assay, NET
T2 construct: expressed in transfected cells
Method: as §1, §2

[4] = molecular target: T3, SERT (Rattus norvegicus, UniProt P31652); experiment: Rat synaptosome uptake assay, [3H]-5-HT; assay type: biochemical; details: Mid brain synaptosome
T3 construct: rat brain synaptosomes were prepared and treated with various concentrations of albiflorin; from tissue; host or cells: Sprague-Dawley rat brain synaptosomes (cerebral cortex in the text)
Method: Male Sprague–Dawley rats were killed by asphyxiation with carbon dioxide and cervical dislocation followed by decapitation. […] All dissected tissues were homogenised using a Teflon-glass tissue homogeniser in 4 mL of ice-cold sucrose (0.32 M). The homogenised tissue was centrifuged at 2,000× g for 10 min at 4 °C. […] Bio-Rad protein assay reagents (1:5 ratio) were used to analyse the protein concentration of the synaptosomal suspension. Uptake of 5-HT, NE and DA was determined as described previously. The compounds to be tested were dissolved in DMSO, further diluted with assay buffer, and tested over a 10-log unit concentration range in duplicate. Samples of 30–50 μg of synaptosomes (per sample in a total volume of 200 μL) were preincubated at 37 °C in a shaking water bath for 10 min. Vehicle or modifiers were then added for 10–20 min. Uptake was initiated by adding [^3H]-5-HT (20 nM), [^3H]-NE (20 nM), or [^3H]-DA (50 nM). After a 10-min incubation at 37 °C, uptake was terminated by filtration through (polyethyleneimine-coated) GF/B Whatman filters using a Brandel Cell Harvester (Brandel, Gaithersburg, MD).
(§4) All data for inhibition curves were analysed by nonlinear regression using Prism software (GraphPad Software Inc., San Diego, CA) to determine IC50 values. […]

[5] = test system: DA levels in the hypothalamus; experiment: In vivo microdialysis, extracellular DA; details: oral, 3.5, 7.0 and 14.0 mg/kg, rats
Method: (§5) The effect of albiflorin on extracellular monoamine levels in […] was determined using methods previously described. Microdialysis probes (CMA Microdialysis) with an active membrane surface of 2 mm were perfused with artificial cerebrospinal fluid (125 mM NaCl, 3 mM KCl, 0.75 mM MgSO4 and 1.2 mM CaCl2, pH 7.4) in situ for at least 18 h before experimentation. The microdialysis probe was then implanted via the guide cannula into the hypothalamus and perfused with artificial cerebral spinal fluid at a flow rate of 1 μL/min. A 3-h stabilisation period was allowed after probe implantation, and dialysate sampling was conducted according to previously described methods. […] All subsequent values were expressed as a percentage of the mean preinjection value (i.e., percentage of baseline). […] For a minimum of 3 h after albiflorin administration, dialysis samples were collected every 20 min and analysed to determine the levels of NE, 5-HT and DA. […] A 20-μL sample from the hypothalamus was analysed for 5-HT, NE and DA content using methods described previously. […] External standard curves were used to quantify the amounts of NE, 5-HT and DA in each sample, which was calculated using the area under the curve.
as §4

[6] = molecular target: T4, D3 (Homo sapiens, UniProt P35462); experiment: CNS receptor binding, dopamine D3; details: CHO cell lines, [3H]-spiperone(1), read-out: IC50 values for albiflorin
T4 construct: expressed in transfected cells; host or cells: CHO cell lines
Method: as §3

[7] = molecular target: D5 (Homo sapiens, UniProt P21918); experiment: CNS receptor binding, dopamine D5; details: HEK293 cell line, [3H]-SCH23390(1)
Method: as §3

[8] = molecular target: H4 (Homo sapiens, UniProt Q9H3N8); experiment: CNS receptor binding, histamine H4; details: CHO cell line, [3H]-histamine(1)
Method: as §3

[9] = molecular target: M1 (Homo sapiens, UniProt P11229); experiment: CNS receptor binding, muscarinic M1; details: CHO cell line, [3H]-NMS(1)
Method: as §3

[10] = test system: duration of immobility; parameters: method as in PMID 26719283; details: mice; short- and long-term administration; cited from earlier work
[11] = test system: hypothalamic NE levels; experiment: In vivo microdialysis, extracellular NE; parameters: species or system rats
Method: as §5, §4

[12] = test system: hypothalamic 5-HT levels; experiment: In vivo microdialysis, extracellular 5-HT; parameters: species or system rats
Method: as §5, §4

[13] = read-out: IC50 values for albiflorin

T2 sequence (P23975 whole entry): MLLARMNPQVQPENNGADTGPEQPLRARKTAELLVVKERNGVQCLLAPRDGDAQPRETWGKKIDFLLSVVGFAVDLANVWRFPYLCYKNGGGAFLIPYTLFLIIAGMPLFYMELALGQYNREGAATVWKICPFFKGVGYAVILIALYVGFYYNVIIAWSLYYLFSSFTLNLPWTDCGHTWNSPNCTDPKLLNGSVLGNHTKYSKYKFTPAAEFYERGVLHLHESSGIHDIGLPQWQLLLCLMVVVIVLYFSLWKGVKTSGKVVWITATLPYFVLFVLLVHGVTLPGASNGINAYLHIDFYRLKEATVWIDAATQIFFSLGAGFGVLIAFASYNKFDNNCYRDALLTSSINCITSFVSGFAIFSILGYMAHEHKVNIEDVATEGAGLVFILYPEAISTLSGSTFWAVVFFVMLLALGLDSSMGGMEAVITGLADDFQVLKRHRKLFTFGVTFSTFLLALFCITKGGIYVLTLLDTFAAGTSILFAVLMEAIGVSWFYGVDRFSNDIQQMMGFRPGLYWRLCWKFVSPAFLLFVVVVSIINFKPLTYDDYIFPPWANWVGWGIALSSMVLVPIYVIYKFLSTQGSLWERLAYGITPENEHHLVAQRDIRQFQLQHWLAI
Sequence of H4 (Q9H3N8 whole entry): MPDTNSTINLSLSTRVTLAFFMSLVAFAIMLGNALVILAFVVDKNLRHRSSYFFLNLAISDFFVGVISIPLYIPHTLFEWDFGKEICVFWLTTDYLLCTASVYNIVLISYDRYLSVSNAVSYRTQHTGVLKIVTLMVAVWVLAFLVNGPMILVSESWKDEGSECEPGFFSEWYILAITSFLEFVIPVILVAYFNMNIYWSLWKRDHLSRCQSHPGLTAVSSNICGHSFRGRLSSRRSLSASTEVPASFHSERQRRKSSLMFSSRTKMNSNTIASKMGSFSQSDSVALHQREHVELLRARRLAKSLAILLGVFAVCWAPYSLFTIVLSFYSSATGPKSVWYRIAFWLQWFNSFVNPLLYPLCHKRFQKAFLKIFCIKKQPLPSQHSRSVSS
Sequence of 5-HT2C (P28335 33-458): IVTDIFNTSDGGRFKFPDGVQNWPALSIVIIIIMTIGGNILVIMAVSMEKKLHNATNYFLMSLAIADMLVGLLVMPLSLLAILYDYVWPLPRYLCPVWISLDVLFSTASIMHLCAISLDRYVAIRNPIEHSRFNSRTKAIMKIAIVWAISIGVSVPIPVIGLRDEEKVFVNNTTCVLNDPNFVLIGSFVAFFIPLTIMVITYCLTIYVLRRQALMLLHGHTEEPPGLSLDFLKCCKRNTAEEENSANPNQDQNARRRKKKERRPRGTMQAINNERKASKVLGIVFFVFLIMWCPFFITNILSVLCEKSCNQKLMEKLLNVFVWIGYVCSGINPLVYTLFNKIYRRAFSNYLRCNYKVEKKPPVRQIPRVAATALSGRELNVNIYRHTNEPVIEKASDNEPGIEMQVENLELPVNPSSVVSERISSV
Sequence of D5 (P21918 whole entry): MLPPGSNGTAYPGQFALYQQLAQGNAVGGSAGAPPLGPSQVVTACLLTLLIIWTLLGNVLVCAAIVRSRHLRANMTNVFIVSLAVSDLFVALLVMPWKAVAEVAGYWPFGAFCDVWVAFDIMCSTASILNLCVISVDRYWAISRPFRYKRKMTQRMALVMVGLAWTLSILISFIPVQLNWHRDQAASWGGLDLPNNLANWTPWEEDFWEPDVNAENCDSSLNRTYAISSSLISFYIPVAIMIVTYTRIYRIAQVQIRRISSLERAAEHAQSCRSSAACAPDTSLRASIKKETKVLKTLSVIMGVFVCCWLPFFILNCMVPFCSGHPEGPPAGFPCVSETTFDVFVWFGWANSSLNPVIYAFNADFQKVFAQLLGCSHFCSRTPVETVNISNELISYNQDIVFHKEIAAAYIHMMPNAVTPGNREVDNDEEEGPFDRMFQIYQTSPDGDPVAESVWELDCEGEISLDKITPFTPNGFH
Sequence of M1 (P11229 whole entry): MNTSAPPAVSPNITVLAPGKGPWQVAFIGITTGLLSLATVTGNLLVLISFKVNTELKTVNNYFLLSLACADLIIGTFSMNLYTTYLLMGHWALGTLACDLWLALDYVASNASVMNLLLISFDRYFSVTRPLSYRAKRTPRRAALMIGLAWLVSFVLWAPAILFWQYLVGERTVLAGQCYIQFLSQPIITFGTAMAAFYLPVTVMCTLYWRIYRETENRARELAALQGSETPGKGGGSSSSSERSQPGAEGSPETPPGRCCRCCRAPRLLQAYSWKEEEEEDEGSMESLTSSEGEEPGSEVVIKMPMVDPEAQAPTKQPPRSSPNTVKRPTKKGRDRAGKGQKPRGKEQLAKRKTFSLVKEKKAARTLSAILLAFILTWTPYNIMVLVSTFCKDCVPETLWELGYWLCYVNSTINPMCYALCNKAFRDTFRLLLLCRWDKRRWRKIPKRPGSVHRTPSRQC
T3 sequence (P31652 whole entry): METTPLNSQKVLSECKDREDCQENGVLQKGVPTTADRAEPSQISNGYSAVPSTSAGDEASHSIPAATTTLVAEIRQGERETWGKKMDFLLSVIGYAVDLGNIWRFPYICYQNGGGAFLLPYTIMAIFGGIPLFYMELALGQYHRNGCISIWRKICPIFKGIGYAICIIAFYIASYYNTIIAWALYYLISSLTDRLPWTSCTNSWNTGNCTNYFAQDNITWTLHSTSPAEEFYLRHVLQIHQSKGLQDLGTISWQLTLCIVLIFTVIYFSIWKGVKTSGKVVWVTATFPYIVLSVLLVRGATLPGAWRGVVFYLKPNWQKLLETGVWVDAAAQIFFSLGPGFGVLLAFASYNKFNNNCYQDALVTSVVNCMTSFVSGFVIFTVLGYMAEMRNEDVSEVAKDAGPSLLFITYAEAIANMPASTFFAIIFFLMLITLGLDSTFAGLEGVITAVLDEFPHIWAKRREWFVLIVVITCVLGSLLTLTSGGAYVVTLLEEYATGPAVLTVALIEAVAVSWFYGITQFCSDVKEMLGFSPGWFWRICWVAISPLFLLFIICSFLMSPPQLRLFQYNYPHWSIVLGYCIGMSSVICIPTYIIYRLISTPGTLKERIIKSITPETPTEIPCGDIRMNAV
T4 sequence (P35462 whole entry): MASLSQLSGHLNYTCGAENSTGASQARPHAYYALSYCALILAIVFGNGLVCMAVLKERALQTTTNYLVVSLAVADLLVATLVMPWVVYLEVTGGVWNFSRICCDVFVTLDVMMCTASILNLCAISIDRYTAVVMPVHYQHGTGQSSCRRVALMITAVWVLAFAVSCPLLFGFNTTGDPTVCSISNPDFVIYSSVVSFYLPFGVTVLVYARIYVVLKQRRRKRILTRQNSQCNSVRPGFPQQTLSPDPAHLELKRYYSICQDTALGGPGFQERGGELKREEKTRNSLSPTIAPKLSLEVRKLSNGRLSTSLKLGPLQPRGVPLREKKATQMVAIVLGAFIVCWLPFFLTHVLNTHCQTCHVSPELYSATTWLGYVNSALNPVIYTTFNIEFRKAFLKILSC
T1 sequence (Q01959 whole entry): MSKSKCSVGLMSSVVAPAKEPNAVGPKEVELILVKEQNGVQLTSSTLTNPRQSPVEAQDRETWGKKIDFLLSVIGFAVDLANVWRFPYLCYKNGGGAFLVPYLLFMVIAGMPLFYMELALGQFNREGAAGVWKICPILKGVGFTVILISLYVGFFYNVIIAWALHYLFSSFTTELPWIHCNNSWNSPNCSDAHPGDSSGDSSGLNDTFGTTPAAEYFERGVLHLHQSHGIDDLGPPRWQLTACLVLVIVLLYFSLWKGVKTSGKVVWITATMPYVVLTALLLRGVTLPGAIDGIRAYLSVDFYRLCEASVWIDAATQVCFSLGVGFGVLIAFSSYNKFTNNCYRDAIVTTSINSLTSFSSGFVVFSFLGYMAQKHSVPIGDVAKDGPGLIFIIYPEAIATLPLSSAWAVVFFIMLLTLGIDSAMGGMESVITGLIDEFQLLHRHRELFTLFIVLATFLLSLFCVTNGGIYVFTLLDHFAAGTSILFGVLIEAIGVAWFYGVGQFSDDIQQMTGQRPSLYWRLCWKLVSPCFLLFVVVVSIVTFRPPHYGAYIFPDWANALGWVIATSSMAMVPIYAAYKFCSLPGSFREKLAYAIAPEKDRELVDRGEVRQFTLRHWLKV

## C[C@]12C[C@@H](O)[C@@H]3C[C@@]1(O[C@@H]1O[C@H](CO)[C@@H](O)[C@H](O)[C@H]1O)[C@@]3(COC(=O)c1ccccc1)C(=O)O2 [albiflorin, Albiflorin]
[1]
  Ki: 1480 ± 33.2 nM
[2]
  % Inhibition of binding at 10 μM albiflorin: 33.66%
[2]; [13]
  IC50: > 10000 nM
[3]; Human, [3H]-nisoxetine, HEK293 cell line
  Ki: 1.23 ± 0.07 nM
[3]; albiflorin vs desipramine
  affinity relative to desipramine in hNET binding assay: 4 fold
[4]
  IC50: 3.04 ± 0.84 nM
[5]
  effect on DA levels in the hypothalamus: not elevated
[6]
  IC50: 3660 ± 212 nM
[7]
  % Inhibition of binding at 10 μM albiflorin: 32.50%
[7]; [13]
  IC50: > 10000 nM
[8]
  % Inhibition of binding at 10 μM albiflorin: 6.33%
[8]; [13]
  IC50: > 10000 nM
[9]
  % Inhibition of binding at 10 μM albiflorin: 21.28%
[9]; [13]
  IC50: > 10000 nM
[10]
  antidepressant-like effect, forced-swim test: decreases in the duration of immobility
[11]; acute oral administration, 3.5, 7.0, 14.0 mg/kg, freely moving rats
  effect on hypothalamic NE levels: dose- and time-dependent increase
[11]; oral, rats, microdialysis
  time of peak NE increase after administration: 1 h
[12]; acute oral administration, 3.5, 7.0, 14.0 mg/kg, freely moving rats, vs vehicle
  effect on hypothalamic 5-HT levels: significant increase
[12]; oral, rats, microdialysis
  time of peak 5-HT increase post administration: 1 h
